Data: ChEMBL document CHEMBL1201862, “PubChem BioAssay data set” (2004)
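Cultured in 96-well plates, cells were exposed to test compound for 48 hours across five concentrations. GI50 is the concentration that inhibits growth by half.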 Calls of active or inactive are those of the source. No stated cut-off is given here; in the data, active = GI50 up to about 1.1 µM and inactive = higher.

Key:
Assay in all cases: NCI anticancer screen, dose series, 48 h
PC-3 = system: PC-3
SR = system: SR
SW-620 = system: SW-620
SK-OV-3 = system: SK-OV-3
MDA-MB-435 = system: MDA-MB-435
HOP-62 = system: HOP-62
SF-295 = system: SF-295
MCF7 = system: MCF7
CAKI-1 = system: CAKI-1
TK-10 = system: TK-10
HCT-116 = system: HCT-116
SK-MEL-2 = system: SK-MEL-2
NCI-H460 = system: NCI-H460
NCI-H226 = system: NCI-H226
ACHN = system: ACHN
XF498 = system: XF498
OVCAR-4 = system: OVCAR-4
RPMI-8226 = system: RPMI-8226
HCT-15 = system: HCT-15
SNB-78 = system: SNB-78
HT-29 = system: HT-29
RXF 631 = system: RXF 631
KM12 = system: KM12
K562 = system: K562
HOP-18 = system: HOP-18
SN12C = system: SN12C
T47D = system: T47D
SF-539 = system: SF-539
SF-268 = system: SF-268
OVCAR-3 = system: OVCAR-3
SK-MEL-28 = system: SK-MEL-28
EKVX = system: EKVX
A498 = system: A498
OVCAR-8 = system: OVCAR-8
Malme-3M = system: Malme-3M
COLO 205 = system: COLO 205
DMS-114 = system: DMS-114
CCRF-CEM = system: CCRF-CEM
HOP-92 = system: HOP-92
M14 = system: M14
BT-549 = system: BT-549
UO-31 = system: UO-31
U-251 = system: U-251
SK-MEL-5 = system: SK-MEL-5
LOX IMVI = system: LOX IMVI
M19-MEL = system: M19-MEL
NCI-H23 = system: NCI-H23
DLD-1 = system: DLD-1
A549 = system: A549
SNB-19 = system: SNB-19
Hs-578T = system: Hs-578T
IGROV-1 = system: IGROV-1
DU-145 = system: DU-145
NCI-H522 = system: NCI-H522
MOLT-4 = system: MOLT-4
HCC 2998 = system: HCC 2998
786-0 = system: 786-0
DMS-273 = system: DMS-273
HL-60 = system: HL-60
LXFL 529 = system: LXFL 529
RXF 393 = system: RXF 393
MDA-N = system: MDA-N
KM-20L2 = system: KM-20L2
UACC-62 = system: UACC-62
OVCAR-5 = system: OVCAR-5
UACC-257 = system: UACC-257
SNB-75 = system: SNB-75

Q: What does the source list for `CC1(C)C(=O)/C=C\C(=O)C(C)(C)C(=O)/C=C\C(=O)C(C)(C)C2=CC=C(O2)C(C)(C)C(=O)/C=C\C1=O`?
A: GI50 (PC-3): 15.8 µM (inactive); GI50 (SR): 1.22 µM (inactive); GI50 (SW-620): 1.66 µM (inactive); GI50 (SK-OV-3): 15.9 µM (inactive); GI50 (MDA-MB-435): 15.7 µM (inactive); GI50 (HOP-62): 24.3 µM (inactive); GI50 (SF-295): 17.3 µM (inactive); GI50 (MCF7): 10.6 µM (inactive); GI50 (CAKI-1): 3.84 µM (inactive); GI50 (TK-10): 7.6 µM (inactive); GI50 (HCT-116): 2.08 µM (inactive); GI50 (SK-MEL-2): 12.1 µM (inactive); GI50 (NCI-H460): 20.5 µM (inactive); GI50 (NCI-H226): 13.6 µM (inactive); GI50 (ACHN): 3.63 µM (inactive); GI50 (XF498): 1.88 µM (inactive); GI50 (OVCAR-4): 6.61 µM (inactive); GI50 (RPMI-8226): 0.789 µM (active); GI50 (HCT-15): 3.7 µM; GI50 (SNB-78): 3.71 µM (inactive); GI50 (HT-29): 2.89 µM (inactive); GI50 (RXF 631): 7.82 µM (inactive); GI50 (KM12): 12.7 µM (inactive); GI50 (K562): 1.63 µM (inactive); GI50 (HOP-18): 22.5 µM (inactive); GI50 (SN12C): 5.48 µM (inactive); GI50 (T47D): 0.0775 µM (active); GI50 (SF-539): 9.62 µM (inactive); GI50 (SF-268): 16.6 µM (inactive); GI50 (OVCAR-3): 3.27 µM (inactive); GI50 (SK-MEL-28): 4.99 µM (inactive); GI50 (EKVX): 5.21 µM (inactive); GI50 (A498): 16.8 µM (inactive); GI50 (OVCAR-8): 4.44 µM (inactive); GI50 (Malme-3M): 1.91 µM (inactive); GI50 (COLO 205): 2.29 µM (inactive); GI50 (DMS-114): 8.26 µM (inactive); GI50 (CCRF-CEM): 0.368 µM (active); GI50 (HOP-92): 1.8 µM (inactive); GI50 (M14): 2.21 µM (inactive); GI50 (BT-549): 11.9 µM (inactive); GI50 (UO-31): 14.5 µM (inactive); GI50 (U-251): 15.7 µM (inactive); GI50 (SK-MEL-5): 7.85 µM (inactive); GI50 (LOX IMVI): 5.14 µM (inactive); GI50 (M19-MEL): 5.86 µM (inactive); GI50 (NCI-H23): 5.55 µM (inactive); GI50 (DLD-1): 1.72 µM (inactive); GI50 (A549): 21.1 µM (inactive); GI50 (SNB-19): 16.7 µM (inactive); GI50 (Hs-578T): 16.9 µM (inactive); GI50 (IGROV-1): 9.18 µM (inactive); GI50 (DU-145): 17.9 µM (inactive); GI50 (NCI-H522): 1.44 µM (inactive); GI50 (MOLT-4): 1.27 µM (inactive); GI50 (HCC 2998): 11.7 µM (inactive); GI50 (786-0): 2.24 µM (inactive); GI50 (DMS-273): 2.94 µM (inactive); GI50 (HL-60): 0.684 µM (active); GI50 (LXFL 529): 2.4 µM (inactive); GI50 (RXF 393): 2 µM (inactive); GI50 (MDA-N): 5.01 µM (inactive); GI50 (KM-20L2): 13.9 µM (inactive); GI50 (UACC-62): 5.07 µM (inactive); GI50 (OVCAR-5): 20.8 µM (inactive); GI50 (UACC-257): 5.71 µM (inactive)

Q: Which GI50 (SR) does the source give for `COC(=O)/C=C/c1c(CC=C(C)C)ncn1C` here?
A: 4.29 µM (inactive)

Q: And the GI50 (SW-620)?
A: 6.79 µM (inactive)

Q: What about the GI50 (SK-OV-3) of the same compound?
A: 47.9 µM (inactive)

Q: What about the GI50 (HOP-62) of the same compound?
A: 42 µM (inactive)

Q: And the GI50 (SF-295)?
A: 24.4 µM (inactive)

Q: And the GI50 (CAKI-1)?
A: > 68.1 µM (inactive)

Q: And the GI50 (TK-10)?
A: 55.7 µM (inactive)

Q: What about the GI50 (HCT-116) of the same compound?
A: 24.3 µM (inactive)

Q: What about the GI50 (SK-MEL-2) of the same compound?
A: 19.6 µM (inactive)

Q: What about the GI50 (NCI-H460) of the same compound?
A: 40.2 µM (inactive)

Q: What about the GI50 (NCI-H226) of the same compound?
A: > 38.5 µM (inactive)

Q: And the GI50 (ACHN)?
A: > 76.7 µM (inactive)

Q: What about the GI50 (XF498) of the same compound?
A: 41.3 µM (inactive)

Q: And the GI50 (OVCAR-4)?
A: 84.9 µM (inactive)

Q: What about the GI50 (RPMI-8226) of the same compound?
A: 20.6 µM (inactive)

Q: What about the GI50 (HCT-15) of the same compound?
A: 7.85 µM

Q: What about the GI50 (SNB-78) of the same compound?
A: 53.2 µM (inactive)

Q: What about the GI50 (HT-29) of the same compound?
A: 14.4 µM (inactive)

Q: And the GI50 (RXF 631)?
A: 59 µM (inactive)

Q: And the GI50 (KM12)?
A: 11 µM (inactive)

Q: What about the GI50 (K562) of the same compound?
A: 4.63 µM (inactive)

Q: And the GI50 (HOP-18)?
A: > 100 µM (inactive)

Q: What about the GI50 (SN12C) of the same compound?
A: 88.5 µM (inactive)

Q: What about the GI50 (SF-539) of the same compound?
A: 17.8 µM (inactive)

Q: What about the GI50 (SF-268) of the same compound?
A: > 66.7 µM (inactive)

Q: And the GI50 (OVCAR-3)?
A: 16.9 µM (inactive)

Q: What about the GI50 (SK-MEL-28) of the same compound?
A: > 49.5 µM (inactive)

Q: What about the GI50 (EKVX) of the same compound?
A: > 57.1 µM (inactive)

Q: What about the GI50 (A498) of the same compound?
A: > 84.1 µM (inactive)

Q: And the GI50 (OVCAR-8)?
A: 40.2 µM (inactive)

Q: And the GI50 (Malme-3M)?
A: > 100 µM (inactive)

Q: What about the GI50 (COLO 205) of the same compound?
A: 20.9 µM (inactive)

Q: What about the GI50 (DMS-114) of the same compound?
A: 5.38 µM (inactive)

Q: And the GI50 (CCRF-CEM)?
A: > 41.3 µM (inactive)

Q: And the GI50 (HOP-92)?
A: 78.7 µM (inactive)

Q: And the GI50 (M14)?
A: 16.4 µM (inactive)

Q: And the GI50 (UO-31)?
A: 28.2 µM (inactive)

Q: What about the GI50 (U-251) of the same compound?
A: 19.1 µM (inactive)

Q: And the GI50 (SK-MEL-5)?
A: 22.1 µM (inactive)

Q: What about the GI50 (LOX IMVI) of the same compound?
A: 35.7 µM (inactive)

Q: What about the GI50 (M19-MEL) of the same compound?
A: 18.8 µM (inactive)

Q: And the GI50 (NCI-H23)?
A: 37.7 µM (inactive)

Q: And the GI50 (DLD-1)?
A: 29.8 µM (inactive)

Q: And the GI50 (A549)?
A: 70.3 µM (inactive)

Q: And the GI50 (SNB-19)?
A: 26.1 µM (inactive)

Q: And the GI50 (IGROV-1)?
A: > 100 µM (inactive)

Q: And the GI50 (NCI-H522)?
A: 25.3 µM (inactive)

Q: What about the GI50 (MOLT-4) of the same compound?
A: 5.31 µM (inactive)

Q: And the GI50 (HCC 2998)?
A: 54.6 µM (inactive)

Q: And the GI50 (786-0)?
A: 38.5 µM (inactive)

Q: What about the GI50 (DMS-273) of the same compound?
A: 8.38 µM (inactive)

Q: What about the GI50 (HL-60) of the same compound?
A: 4.21 µM (inactive)

Q: What about the GI50 (LXFL 529) of the same compound?
A: 55.1 µM (inactive)

Q: And the GI50 (SNB-75)?
A: 11.1 µM (inactive)

Q: And the GI50 (RXF 393)?
A: 22.5 µM (inactive)

Q: What about the GI50 (KM-20L2) of the same compound?
A: 16.7 µM (inactive)

Q: What about the GI50 (UACC-62) of the same compound?
A: 16.6 µM (inactive)

Q: And the GI50 (OVCAR-5)?
A: > 100 µM (inactive)

Q: What about the GI50 (UACC-257) of the same compound?
A: 61.7 µM (inactive)
